Values after ≈ are worked out from the molar mass of the structure shown.
Key:
S. pneumoniae IU1945 = assay: Antimicrobial susceptibility assay; format: cell-based; settings: Streptococcus pneumoniae
PBP1a = PBP1a (Streptococcus pneumoniae, UniProt Q8DR59); assay: cell-based; format: binding; settings: IC50 PBPla, strain IU1945; average ± SEM of two experiments
PBP1b = PBP1b (Streptococcus pneumoniae, UniProt Q7CRA4); format: binding; settings: read-out: IC50 PBP1b; strain IU1945; average ± SEM of two experiments
PBP2a = PBP2a (Streptococcus pneumoniae, UniProt Q8DNB6); assay: cell-based; format: binding; settings: strain IU1945, average ± SEM of two experiments
PBP2b = PBP2b (Streptococcus pneumoniae, UniProt P0A3M6); assay: cell-based; format: binding; settings: strain IU1945, average ± SEM of two experiments
PBP3 = target: T1, PBP3 (Streptococcus pneumoniae, UniProt Q8DQ99); settings: read-out: IC50 PBP3; strain IU1945; average ± SEM of two experiments
T1 sequence (Q8DQ99 23-413): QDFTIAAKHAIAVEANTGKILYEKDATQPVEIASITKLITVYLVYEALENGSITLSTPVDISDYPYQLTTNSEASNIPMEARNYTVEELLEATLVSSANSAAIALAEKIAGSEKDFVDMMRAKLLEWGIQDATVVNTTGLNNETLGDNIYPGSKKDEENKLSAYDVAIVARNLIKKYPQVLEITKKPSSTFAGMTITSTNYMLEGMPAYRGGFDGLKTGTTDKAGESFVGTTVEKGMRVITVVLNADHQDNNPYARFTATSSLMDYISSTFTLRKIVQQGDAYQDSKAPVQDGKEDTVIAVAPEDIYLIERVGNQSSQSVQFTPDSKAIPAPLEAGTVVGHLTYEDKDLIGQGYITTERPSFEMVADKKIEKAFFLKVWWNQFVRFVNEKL

PBP2x = PBP2x (Streptococcus pneumoniae, UniProt P59676); assay: cell-based; format: binding; settings: strain IU1945, average ± SEM of two experiments
[1] = tested on: penicillin-binding proteins (PBPs); settings: S. pneumoniae, previous assessment; ref Kocaoglu et al. 2015; cited from earlier work

Chain of PBP2x (P59676 whole entry): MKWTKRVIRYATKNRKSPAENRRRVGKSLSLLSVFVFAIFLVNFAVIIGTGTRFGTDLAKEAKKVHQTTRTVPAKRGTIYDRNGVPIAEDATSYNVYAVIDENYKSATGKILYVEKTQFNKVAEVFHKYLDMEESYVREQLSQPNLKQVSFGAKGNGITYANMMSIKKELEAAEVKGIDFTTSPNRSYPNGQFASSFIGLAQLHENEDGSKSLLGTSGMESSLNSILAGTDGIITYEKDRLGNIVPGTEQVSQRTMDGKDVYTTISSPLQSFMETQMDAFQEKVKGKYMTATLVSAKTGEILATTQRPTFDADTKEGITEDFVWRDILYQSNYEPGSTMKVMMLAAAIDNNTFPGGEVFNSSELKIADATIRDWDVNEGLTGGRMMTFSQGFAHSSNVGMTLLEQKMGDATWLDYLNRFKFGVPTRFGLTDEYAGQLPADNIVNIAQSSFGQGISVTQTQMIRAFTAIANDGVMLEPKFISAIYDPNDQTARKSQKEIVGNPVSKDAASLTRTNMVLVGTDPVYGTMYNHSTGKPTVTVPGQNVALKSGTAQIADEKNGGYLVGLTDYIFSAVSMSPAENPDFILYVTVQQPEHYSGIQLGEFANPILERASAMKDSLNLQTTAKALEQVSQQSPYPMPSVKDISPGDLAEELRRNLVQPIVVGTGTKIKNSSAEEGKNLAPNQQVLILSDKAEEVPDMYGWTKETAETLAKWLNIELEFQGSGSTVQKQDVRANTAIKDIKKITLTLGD
Chain of PBP2b (P0A3M6 whole entry): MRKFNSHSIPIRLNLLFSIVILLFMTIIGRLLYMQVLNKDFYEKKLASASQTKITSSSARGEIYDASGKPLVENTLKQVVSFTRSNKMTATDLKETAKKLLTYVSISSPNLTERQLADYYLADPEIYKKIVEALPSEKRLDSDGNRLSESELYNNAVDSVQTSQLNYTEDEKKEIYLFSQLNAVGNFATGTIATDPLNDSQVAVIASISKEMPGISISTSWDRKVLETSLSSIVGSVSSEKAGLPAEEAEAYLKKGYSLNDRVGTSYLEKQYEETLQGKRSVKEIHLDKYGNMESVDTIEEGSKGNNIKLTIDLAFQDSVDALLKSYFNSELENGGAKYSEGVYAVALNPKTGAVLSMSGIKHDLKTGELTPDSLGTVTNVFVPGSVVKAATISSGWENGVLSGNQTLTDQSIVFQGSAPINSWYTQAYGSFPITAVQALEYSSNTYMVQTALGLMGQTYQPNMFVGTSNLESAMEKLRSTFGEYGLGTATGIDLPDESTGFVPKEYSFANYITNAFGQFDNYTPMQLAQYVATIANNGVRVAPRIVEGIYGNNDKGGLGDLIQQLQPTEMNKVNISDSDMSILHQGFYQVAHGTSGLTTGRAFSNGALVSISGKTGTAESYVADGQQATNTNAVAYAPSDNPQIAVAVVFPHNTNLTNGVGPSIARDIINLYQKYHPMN
Chain of PBP2a (Q8DNB6 whole entry): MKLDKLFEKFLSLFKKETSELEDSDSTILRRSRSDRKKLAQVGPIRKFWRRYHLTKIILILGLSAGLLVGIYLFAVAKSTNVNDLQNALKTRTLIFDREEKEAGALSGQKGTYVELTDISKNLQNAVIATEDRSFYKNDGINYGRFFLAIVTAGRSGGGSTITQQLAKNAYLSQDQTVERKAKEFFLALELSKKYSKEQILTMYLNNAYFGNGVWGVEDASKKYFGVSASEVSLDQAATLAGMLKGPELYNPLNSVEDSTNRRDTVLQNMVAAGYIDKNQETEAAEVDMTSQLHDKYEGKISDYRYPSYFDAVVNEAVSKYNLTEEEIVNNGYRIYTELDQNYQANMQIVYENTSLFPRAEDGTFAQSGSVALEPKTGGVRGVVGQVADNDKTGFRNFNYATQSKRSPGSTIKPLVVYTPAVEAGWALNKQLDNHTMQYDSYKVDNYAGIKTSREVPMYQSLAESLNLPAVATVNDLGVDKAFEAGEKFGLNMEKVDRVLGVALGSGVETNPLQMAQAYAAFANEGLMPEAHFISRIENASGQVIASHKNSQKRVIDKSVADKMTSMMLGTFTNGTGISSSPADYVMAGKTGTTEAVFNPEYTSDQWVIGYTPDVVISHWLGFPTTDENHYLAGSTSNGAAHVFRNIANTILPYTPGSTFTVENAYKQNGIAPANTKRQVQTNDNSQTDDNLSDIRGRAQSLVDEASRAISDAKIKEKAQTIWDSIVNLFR
Chain of PBP1a (Q8DR59 whole entry): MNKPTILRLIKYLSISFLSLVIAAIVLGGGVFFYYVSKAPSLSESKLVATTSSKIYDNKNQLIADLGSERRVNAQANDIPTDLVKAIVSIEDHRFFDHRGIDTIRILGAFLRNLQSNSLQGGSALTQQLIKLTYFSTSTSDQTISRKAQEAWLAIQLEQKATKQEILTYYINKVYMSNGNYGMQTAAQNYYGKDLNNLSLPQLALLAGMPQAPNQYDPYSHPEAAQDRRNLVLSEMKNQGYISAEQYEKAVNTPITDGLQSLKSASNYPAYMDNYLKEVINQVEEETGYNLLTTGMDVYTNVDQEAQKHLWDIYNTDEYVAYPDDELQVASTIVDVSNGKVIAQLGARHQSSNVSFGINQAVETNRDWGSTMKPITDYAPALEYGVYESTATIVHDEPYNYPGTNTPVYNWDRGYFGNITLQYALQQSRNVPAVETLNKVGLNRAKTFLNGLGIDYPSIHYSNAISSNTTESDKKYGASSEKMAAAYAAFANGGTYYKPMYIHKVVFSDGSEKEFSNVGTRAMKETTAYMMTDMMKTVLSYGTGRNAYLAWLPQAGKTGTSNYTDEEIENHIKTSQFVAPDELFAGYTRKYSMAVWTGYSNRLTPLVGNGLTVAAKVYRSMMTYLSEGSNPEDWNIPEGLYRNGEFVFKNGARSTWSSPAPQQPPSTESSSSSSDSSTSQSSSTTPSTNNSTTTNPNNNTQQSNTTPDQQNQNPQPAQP

Compound | MIC (S. pneumoniae IU1945) [µM] | IC50 (PBP1a) [µM] | IC50 (PBP1b) [µM] | IC50 (PBP2a) [µM] | IC50 (PBP2b) [µM] | IC50 (PBP3) [µM] | IC50 (PBP2x) [µM] | PBP selectivity (previous report) [1]
C[C@@H](O)[C@H]1C(=O)N2C(C(=O)[O-])=C(SC3Cn4cnc[n+]4C3)[C@H](C)[C@H]12 (stereo partly shown) [Biapenem, biapenem] | 0.01 (≈ 0.0035 µg/mL) | 0.06 ± 0.021 | 6.82 ± 4.15 | 0.146 | 0.111 ± 0.106 | 0.006 ± 0.001 |  | 
CO[C@@]1(NC(=O)C2SC(=C(C(N)=O)C(=O)O)S2)C(=O)N2C(C(=O)O)=C(CSc3nnnn3C)CS[C@@H]21 (stereo partly shown) [Cefotetan, cefotetan] | 1 (≈ 0.576 µg/mL) | 14.6 ± 6.7 | 0.538 ± 0.201 | 54.3 ± 21.5 |  | 0.069 ± 0.015 | 14.4 ± 5.77 | 
C=CC1=C(C(=O)O)N2C(=O)[C@@H](NC(=O)/C(=N\OCC(=O)O)c3csc(N)n3)[C@H]2SC1 [Cefixime, cefixime] | 0.1 (≈ 0.0453 µg/mL) | 32.3 ± 34.4 | 8.96 ± 4.6 | 4.85 ± 2.06 | > 1000 | 0.026 ± 0.007 | 0.336 ± 0.224 | 
C[C@@H](O)[C@H]1C(=O)N2C(C(=O)O)=C(S[C@@H]3CN[C@H](CNS(N)(=O)=O)C3)[C@H](C)[C@H]12 [Doripenem, doripenem] |  |  |  |  |  |  |  | co-selectivity towards PBP3 along with PBP1a, but these molecules were additionally co-selective for PBP2x
N[C@@H](C(=O)N[C@@H]1C(=O)N2C(C(=O)O)=C(Cl)CS[C@H]12)c1ccccc1 [Cefaclor, cefaclor] | 10 (≈ 3.68 µg/mL) | 3.6 ± 1.33 | 8.59 ± 3.63 |  | 55.4 ± 26.3 | 0.034 ± 0.009 | 3.67 ± 2.52 | 
CO/N=C(\C(=O)N[C@@H]1C(=O)N2C(C(=O)[O-])=C(C[n+]3cccc4c3CCC4)CS[C@H]12)c1csc(N)n1 [Cefpirome, cefpirome] | 0.01 (≈ 0.00515 µg/mL) | 0.051 ± 0.011 | 0.024 ± 0.008 | 0.016 ± 0.004 | 5.53 ± 2.99 |  | 0.002 ± 0.001 | 
CO/N=C(\C(=O)N[C@@H]1C(=O)N2C(C(=O)[O-])=C(C[N+]3(C)CCCC3)CS[C@H]12)c1csc(N)n1 [Cefepime, cefepime] | 0.01 (≈ 0.00481 µg/mL) |  |  |  |  |  |  | 
Cc1onc(-c2ccccc2Cl)c1C(=O)N[C@@H]1C(=O)N2[C@@H]1SC(C)(C)[C@@H]2C(=O)O [Cloxacillin, cloxacillin] |  | 0.561 ± 0.219 | 0.977 ± 0.372 | 4.47 ± 2.24 | 2.36 ± 1.77 | 0.102 ± 0.092 | 0.119 ± 0.062 | 
CC1(C)S[C@@H]2[C@H](NC(=O)C(C(=O)O)c3ccccc3)C(=O)N2[C@H]1C(=O)O (stereo partly shown) [Carbenicillin, carbenicillin] | 0.1 (≈ 0.0378 µg/mL) | 1.11 ± 0.367 | 0.859 ± 0.285 | 5.64 ± 4.47 | 2.12 ± 1.15 | 0.018 ± 0.011 | 0.962 ± 0.506 | 

From article PMC9115913 (Biological chemistry, 2022)
